How the values were obtained:
Type in all cases: in vivo
Settings in all cases: 250 g/ha, evaluated after 13 days
[1] = tested on: Amaranthus palmeri (AMAPA); assay: Post-emergence herbicide glasshouse test
Summary of the method: (§1)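 Damage rated 13 days after spraying on a five-point scale (1=0–20% … 5=81–100%). Compound applied at 250 g/ha by default, as aqueous spray from acetone/water 50:50 plus 0.5% Tween 20, to pots one day post-sowing (pre) or after 8 days of growth (post). Plants kept at 24/16 °C, 14 h light, 65% humidity, watered twice daily.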

[2] = tested on: Amaranthus retoflexus (AMARE); assay: Post-emergence herbicide glasshouse test
Summary of the method: as §1

[3] = tested on: Echinochloa crus-galli (ECHCG); assay: Post-emergence herbicide glasshouse test
Summary of the method: as §1

[4] = tested on: Ipomoea hederacea (IPOHE); assay: Post-emergence herbicide glasshouse test
Summary of the method: as §1

[5] = tested on: Amaranthus palmeri (AMAPA); assay: Pre-emergence herbicide glasshouse test
Summary of the method: as §1

[6] = tested on: Amaranthus retoflexus (AMARE); assay: Pre-emergence herbicide glasshouse test
Summary of the method: as §1

[7] = tested on: Echinochloa crus-galli (ECHCG); assay: Pre-emergence herbicide glasshouse test
Summary of the method: as §1

[8] = tested on: Ipomoea hederacea (IPOHE); assay: Pre-emergence herbicide glasshouse test
Summary of the method: as §1

SMILES	percentage damage caused to the plant, AMAPA (five-point scale) [1]	percentage damage caused to the plant, AMARE (five-point scale) [2]	percentage damage caused to the plant, ECHCG (five-point scale) [3]	percentage damage caused to the plant, IPOHE (five-point scale) [4]	percentage damage caused to the plant, AMAPA (five-point scale) [5]	percentage damage caused to the plant, AMARE (five-point scale) [6]	percentage damage caused to the plant, ECHCG (five-point scale) [7]	percentage damage caused to the plant, IPOHE (five-point scale) [8]
CC(C)(C)c1csc(Cn2cc(C(F)(F)F)nc2-c2ccc(Cl)nc2)n1 [Compound 1.137]	1 (1=0-20%)	1 (1=0-20%)	1 (1=0-20%)	1 (1=0-20%)	1 (1=0-20%)	1 (1=0-20%)	1 (1=0-20%)	1 (1=0-20%)
FC(F)(F)c1cn(Cc2nc(C3CC3)no2)c(-c2ccc(Cl)nc2)n1 [Compound 1.138]	1 (1=0-20%)	1 (1=0-20%)	1 (1=0-20%)	2 (2=21-40%)	3 (3=41-60%)	3 (3=41-60%)	1 (1=0-20%)	2 (2=21-40%)
CC(C)c1noc(Cn2cc(C(F)(F)F)nc2-c2ccc(Cl)nc2)n1 [Compound 1.139]	1 (1=0-20%)	1 (1=0-20%)	1 (1=0-20%)	1 (1=0-20%)	1 (1=0-20%)	1 (1=0-20%)	1 (1=0-20%)	1 (1=0-20%)
CCCn1nnnc1Cn1cc(C(F)(F)F)nc1-c1ccc(Cl)nc1 [Compound 1.140]	1 (1=0-20%)	1 (1=0-20%)	1 (1=0-20%)	1 (1=0-20%)	1 (1=0-20%)	1 (1=0-20%)	1 (1=0-20%)	1 (1=0-20%)
Cc1noc(C)c1Cn1cc(C(F)(F)F)nc1-c1ccc(Cl)nc1 [Compound 1.141]	1 (1=0-20%)	1 (1=0-20%)	1 (1=0-20%)	1 (1=0-20%)	1 (1=0-20%)	1 (1=0-20%)	1 (1=0-20%)	1 (1=0-20%)
CN(C)S(=O)(=O)c1cc(Cn2cc(C(F)(F)F)nc2-c2ccc(Cl)nc2)co1 [Compound 1.144]	1 (1=0-20%)	1 (1=0-20%)	1 (1=0-20%)	1 (1=0-20%)	1 (1=0-20%)	1 (1=0-20%)	1 (1=0-20%)	1 (1=0-20%)
Cc1cc(Cn2cc(C(F)(F)F)nc2-c2ccc(Cl)nc2)n(C)n1 [Compound 1.147]	2 (2=21-40%)	3 (3=41-60%)	1 (1=0-20%)	3 (3=41-60%)	2 (2=21-40%)	2 (2=21-40%)	1 (1=0-20%)	4 (4=61-80%)
FC(F)(F)c1cn(Cc2sc(Cl)nc2Cl)c(-c2ccc(Cl)nc2)n1 [Compound 1.148]	1 (1=0-20%)	1 (1=0-20%)	1 (1=0-20%)	1 (1=0-20%)	1 (1=0-20%)	1 (1=0-20%)	1 (1=0-20%)	1 (1=0-20%)
FC(F)(F)c1cn(Cc2cnc(Cl)s2)c(-c2ccc(Cl)nc2)n1 [Compound 1.150]	1 (1=0-20%)	1 (1=0-20%)	1 (1=0-20%)	1 (1=0-20%)	2 (2=21-40%)	2 (2=21-40%)	1 (1=0-20%)	1 (1=0-20%)
Cc1noc(Cn2cc(C(F)(F)F)nc2-c2cnc(F)c(Cl)c2)n1 [Compound 1.151]	5 (5=81-100%)	5 (5=81-100%)	3 (3=41-60%)	4 (4=61-80%)	5 (5=81-100%)	5 (5=81-100%)	3 (3=41-60%)	5 (5=81-100%)
Fc1ncc(-c2nc(C(F)(F)F)cn2Cc2ccc(Cl)s2)cc1Cl [Compound 1.152]	5 (5=81-100%)	5 (5=81-100%)	1 (1=0-20%)	2 (2=21-40%)	5 (5=81-100%)	5 (5=81-100%)	3 (3=41-60%)	1 (1=0-20%)
Cn1ccc(Cn2cc(C(F)(F)F)nc2-c2cnc(F)c(Cl)c2)n1 [Compound 1.153]	5 (5=81-100%)	5 (5=81-100%)	5 (5=81-100%)	4 (4=61-80%)	5 (5=81-100%)	5 (5=81-100%)	5 (5=81-100%)	5 (5=81-100%)
Cc1cc(Cn2cc(C(F)(F)F)nc2-c2cnc(F)c(Cl)c2)ns1 [Compound 1.154]	5 (5=81-100%)	5 (5=81-100%)	5 (5=81-100%)	4 (4=61-80%)	5 (5=81-100%)	5 (5=81-100%)	5 (5=81-100%)	5 (5=81-100%)

From US20260125360A1, “HERBICIDAL IMIDAZOLE COMPOUNDS” (SYNGENTA CROP PROTECTION AG, priority 2022, published 2026)
